Measurements published in ChEMBL document CHEMBL5465560, “Selectivity Literature for EUbOPEN Chemogenomic Library” (2024).

Columns and labels:
[1] = target: Ephrin type-A receptor 5 (Homo sapiens) (UniProt P54756); assay: Selectivity interaction (KinomeScan (DiscoverX)) EUB0001049a EPHA5; conditions: at 1 µM
[2] = system: Tyrosine-protein kinase ABL1 (Homo sapiens), P00519 [F317L]; assay: Selectivity interaction (Ambit KINOMEscan and KiNATiv profiling in Jurkat cells) EUB0000090b ABL1; format: cell-based; conditions: at 1 µM
[3] = target: T1, Protein kinase C iota type (Homo sapiens) (UniProt P41743); assay: Selectivity interaction (Ambit KINOMEscan and KiNATiv profiling in Jurkat cells) EUB0000090b PRKCI; format: cell-based; conditions: at 1 µM
T1 sequence (whole entry): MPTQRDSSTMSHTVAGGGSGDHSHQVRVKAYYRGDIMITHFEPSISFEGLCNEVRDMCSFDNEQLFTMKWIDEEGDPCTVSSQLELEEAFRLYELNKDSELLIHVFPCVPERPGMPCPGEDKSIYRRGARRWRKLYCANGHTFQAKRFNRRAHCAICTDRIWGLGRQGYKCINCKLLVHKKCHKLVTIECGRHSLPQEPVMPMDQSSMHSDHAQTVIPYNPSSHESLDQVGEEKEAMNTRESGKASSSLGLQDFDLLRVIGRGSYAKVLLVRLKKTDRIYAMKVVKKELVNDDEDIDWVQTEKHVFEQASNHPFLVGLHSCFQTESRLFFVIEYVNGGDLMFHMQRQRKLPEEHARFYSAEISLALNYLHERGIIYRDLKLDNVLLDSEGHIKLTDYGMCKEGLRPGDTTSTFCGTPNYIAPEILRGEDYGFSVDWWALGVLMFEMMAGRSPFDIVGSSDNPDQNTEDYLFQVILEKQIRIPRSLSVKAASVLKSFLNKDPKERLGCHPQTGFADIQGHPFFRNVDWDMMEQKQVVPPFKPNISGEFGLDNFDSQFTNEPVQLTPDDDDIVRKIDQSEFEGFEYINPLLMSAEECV

[4] = target: Mitogen-activated protein kinase 3 (Homo sapiens, UniProt P27361); assay: Selectivity interaction (ActivX KiNativ screen (kinase selectivity in THP-1 cell lysates)) EUB0000639a MAPK3; format: subcellular; conditions: lysate
Mitogen-activated protein kinase 3, sequence (P27361 whole entry): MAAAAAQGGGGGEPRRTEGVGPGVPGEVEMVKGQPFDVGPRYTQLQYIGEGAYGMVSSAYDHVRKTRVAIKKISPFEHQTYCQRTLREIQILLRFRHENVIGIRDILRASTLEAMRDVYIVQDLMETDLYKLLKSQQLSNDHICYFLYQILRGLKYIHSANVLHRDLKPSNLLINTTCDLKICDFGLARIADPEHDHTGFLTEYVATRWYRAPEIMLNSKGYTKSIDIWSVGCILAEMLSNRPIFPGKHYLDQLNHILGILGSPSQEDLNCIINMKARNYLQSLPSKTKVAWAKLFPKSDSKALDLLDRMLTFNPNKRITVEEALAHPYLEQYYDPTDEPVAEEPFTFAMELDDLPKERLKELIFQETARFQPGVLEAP

[5] = target: Sphingosine kinase 1 (Homo sapiens) (UniProt Q9NYA1); conditions: at 1 µM
Sphingosine kinase 1 (Homo sapiens), sequence (Q9NYA1 whole entry): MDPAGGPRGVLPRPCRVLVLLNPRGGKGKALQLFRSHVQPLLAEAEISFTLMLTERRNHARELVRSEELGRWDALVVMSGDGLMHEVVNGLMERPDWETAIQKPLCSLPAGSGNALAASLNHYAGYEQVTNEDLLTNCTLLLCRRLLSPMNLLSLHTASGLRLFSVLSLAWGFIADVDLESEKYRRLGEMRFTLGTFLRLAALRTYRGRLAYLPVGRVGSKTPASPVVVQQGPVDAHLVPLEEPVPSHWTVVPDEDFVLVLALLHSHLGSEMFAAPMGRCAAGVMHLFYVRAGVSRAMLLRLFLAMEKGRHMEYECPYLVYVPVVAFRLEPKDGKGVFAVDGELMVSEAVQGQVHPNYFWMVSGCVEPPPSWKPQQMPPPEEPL

[6] = target: Serine/threonine-protein kinase SIK3 (Homo sapiens) (UniProt Q9Y2K2); assay: Selectivity interaction (KinomeScan (DiscoverX)) EUB0000695a SIK3; conditions: at 100 nM
[7] = target: Protein-tyrosine kinase 6 (Homo sapiens, UniProt Q13882); conditions: at 10 µM
Protein-tyrosine kinase 6, sequence (Q13882 whole entry, looked up): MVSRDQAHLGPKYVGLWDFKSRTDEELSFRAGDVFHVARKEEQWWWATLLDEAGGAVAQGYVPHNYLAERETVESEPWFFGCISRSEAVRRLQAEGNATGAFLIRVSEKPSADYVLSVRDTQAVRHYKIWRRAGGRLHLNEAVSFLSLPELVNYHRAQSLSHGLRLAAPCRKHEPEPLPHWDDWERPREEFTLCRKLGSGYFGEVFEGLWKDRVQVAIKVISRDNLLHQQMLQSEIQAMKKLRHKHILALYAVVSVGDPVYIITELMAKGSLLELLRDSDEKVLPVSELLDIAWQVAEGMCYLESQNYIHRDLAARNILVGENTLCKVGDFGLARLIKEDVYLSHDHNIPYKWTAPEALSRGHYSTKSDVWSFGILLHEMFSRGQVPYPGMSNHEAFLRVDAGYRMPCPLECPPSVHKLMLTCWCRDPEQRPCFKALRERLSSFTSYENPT

[8] = target: Mitogen-activated protein kinase kinase kinase 4 (Homo sapiens) (UniProt Q9Y6R4); assay: Selectivity interaction (KinomeScan (DiscoverX)) EUB0000229b MAP3K4; conditions: at 10 µM
Mitogen-activated protein kinase kinase kinase 4 (Homo sapiens), sequence (Q9Y6R4 whole entry): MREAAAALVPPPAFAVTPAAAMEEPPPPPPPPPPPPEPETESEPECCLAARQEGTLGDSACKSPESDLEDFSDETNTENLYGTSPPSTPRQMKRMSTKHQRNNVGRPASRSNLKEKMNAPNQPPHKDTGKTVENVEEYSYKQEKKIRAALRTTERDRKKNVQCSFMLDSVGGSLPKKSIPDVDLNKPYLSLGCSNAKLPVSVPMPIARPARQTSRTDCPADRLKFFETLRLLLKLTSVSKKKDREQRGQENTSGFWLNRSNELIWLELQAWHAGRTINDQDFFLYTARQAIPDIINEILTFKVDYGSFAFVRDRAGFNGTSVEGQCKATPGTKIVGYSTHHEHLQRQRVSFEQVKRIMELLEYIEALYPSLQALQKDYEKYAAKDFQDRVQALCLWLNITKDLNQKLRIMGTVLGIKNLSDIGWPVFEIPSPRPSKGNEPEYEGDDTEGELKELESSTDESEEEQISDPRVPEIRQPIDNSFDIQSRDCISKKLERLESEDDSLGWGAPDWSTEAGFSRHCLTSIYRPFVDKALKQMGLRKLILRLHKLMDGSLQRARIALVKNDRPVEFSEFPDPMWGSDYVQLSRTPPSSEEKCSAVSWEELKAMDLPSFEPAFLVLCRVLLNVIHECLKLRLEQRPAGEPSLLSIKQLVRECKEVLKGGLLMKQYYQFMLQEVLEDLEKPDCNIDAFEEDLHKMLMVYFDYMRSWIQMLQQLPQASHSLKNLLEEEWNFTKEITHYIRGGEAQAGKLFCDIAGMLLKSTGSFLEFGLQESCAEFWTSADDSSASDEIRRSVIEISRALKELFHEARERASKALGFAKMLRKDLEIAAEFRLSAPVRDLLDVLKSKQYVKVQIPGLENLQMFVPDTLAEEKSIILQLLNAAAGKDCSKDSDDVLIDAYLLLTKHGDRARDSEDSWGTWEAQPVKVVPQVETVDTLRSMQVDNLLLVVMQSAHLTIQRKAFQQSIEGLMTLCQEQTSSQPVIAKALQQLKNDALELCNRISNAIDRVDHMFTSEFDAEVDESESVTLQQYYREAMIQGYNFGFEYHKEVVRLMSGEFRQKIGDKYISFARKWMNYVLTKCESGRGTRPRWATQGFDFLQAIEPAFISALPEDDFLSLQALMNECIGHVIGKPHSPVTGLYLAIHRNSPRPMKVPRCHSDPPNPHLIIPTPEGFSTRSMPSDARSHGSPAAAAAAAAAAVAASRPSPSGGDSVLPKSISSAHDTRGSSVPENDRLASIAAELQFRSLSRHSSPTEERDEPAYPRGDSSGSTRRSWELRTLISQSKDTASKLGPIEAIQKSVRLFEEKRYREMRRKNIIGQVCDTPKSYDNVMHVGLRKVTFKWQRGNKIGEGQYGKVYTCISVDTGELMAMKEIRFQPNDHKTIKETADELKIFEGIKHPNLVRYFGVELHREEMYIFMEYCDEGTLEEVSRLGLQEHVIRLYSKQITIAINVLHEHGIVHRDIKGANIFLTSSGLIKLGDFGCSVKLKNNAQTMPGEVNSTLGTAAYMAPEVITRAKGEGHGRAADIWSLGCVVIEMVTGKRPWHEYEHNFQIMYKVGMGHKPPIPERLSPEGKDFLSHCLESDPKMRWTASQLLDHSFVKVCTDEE

[9] = target: T2, Serine/threonine-protein kinase 17B (Homo sapiens) (UniProt O94768); assay: Selectivity interaction (KinomeScan (DiscoverX)) EUB0000229b STK17B; conditions: at 10 µM
T2 sequence (whole entry): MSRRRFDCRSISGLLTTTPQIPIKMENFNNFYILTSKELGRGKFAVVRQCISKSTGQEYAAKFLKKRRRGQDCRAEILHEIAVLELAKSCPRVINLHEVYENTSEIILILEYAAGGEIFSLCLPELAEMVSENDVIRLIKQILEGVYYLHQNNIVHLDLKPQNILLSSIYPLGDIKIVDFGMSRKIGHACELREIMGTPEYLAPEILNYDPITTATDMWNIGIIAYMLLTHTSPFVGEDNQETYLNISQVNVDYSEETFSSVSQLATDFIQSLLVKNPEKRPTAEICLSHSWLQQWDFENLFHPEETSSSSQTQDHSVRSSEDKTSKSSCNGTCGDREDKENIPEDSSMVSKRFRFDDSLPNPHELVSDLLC

[10] = target: T3, Dual specificity tyrosine-phosphorylation-regulated kinase 4 (Homo sapiens) (UniProt Q9NR20); assay: Selectivity interaction (ProQinase) EUB0000171b DYRK4
T3 sequence (whole entry): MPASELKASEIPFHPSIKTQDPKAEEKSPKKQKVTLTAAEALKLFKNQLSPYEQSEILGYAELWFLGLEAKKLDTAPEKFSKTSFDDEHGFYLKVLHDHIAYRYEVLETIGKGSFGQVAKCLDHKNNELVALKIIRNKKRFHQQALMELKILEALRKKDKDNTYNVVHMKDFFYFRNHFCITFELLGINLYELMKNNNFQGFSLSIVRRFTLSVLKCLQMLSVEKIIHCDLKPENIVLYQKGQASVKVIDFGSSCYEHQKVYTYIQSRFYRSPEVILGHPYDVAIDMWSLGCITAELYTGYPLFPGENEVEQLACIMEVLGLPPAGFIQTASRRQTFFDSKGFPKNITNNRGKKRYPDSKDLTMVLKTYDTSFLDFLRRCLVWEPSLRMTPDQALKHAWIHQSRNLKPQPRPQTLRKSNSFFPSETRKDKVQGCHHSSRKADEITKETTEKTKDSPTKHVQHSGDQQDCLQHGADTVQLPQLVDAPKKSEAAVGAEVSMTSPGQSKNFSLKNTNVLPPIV

[11] = target: G protein-coupled receptor kinase 6 (Homo sapiens) (UniProt P43250); assay: Selectivity interaction (ProQinase) EUB0000171b GRK6
G protein-coupled receptor kinase 6 (Homo sapiens), sequence (P43250 whole entry, looked up): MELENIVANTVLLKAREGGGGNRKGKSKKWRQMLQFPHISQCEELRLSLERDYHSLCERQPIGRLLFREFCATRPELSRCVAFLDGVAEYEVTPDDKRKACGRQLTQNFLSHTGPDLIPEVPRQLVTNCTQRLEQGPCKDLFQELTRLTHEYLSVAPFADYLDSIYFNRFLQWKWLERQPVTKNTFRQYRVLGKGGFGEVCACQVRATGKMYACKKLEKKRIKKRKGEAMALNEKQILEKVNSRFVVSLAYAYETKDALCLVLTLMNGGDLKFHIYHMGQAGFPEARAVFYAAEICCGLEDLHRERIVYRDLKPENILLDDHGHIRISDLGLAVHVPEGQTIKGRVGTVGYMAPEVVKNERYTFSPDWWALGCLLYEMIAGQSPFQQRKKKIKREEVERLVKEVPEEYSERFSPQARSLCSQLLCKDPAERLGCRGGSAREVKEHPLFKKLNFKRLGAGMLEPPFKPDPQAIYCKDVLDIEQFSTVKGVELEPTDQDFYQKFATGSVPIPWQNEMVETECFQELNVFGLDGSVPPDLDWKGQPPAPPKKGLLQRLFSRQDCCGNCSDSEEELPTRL

[12] = system: Tyrosine-protein kinase ABL1 (Homo sapiens), P00519 [E255K]; assay: (§1) Selectivity interaction (KinomeScan (DiscoverX)) EUB0000045b ABL1
[13] = system: Tyrosine-protein kinase ABL1 (Homo sapiens), P00519 [F317I]; assay: as §1
[14] = system: Tyrosine-protein kinase ABL1 (Homo sapiens), P00519 [F317L]; assay: as §1
[15] = system: Tyrosine-protein kinase ABL1 (Homo sapiens), P00519 [H396P]; assay: as §1
[16] = system: Tyrosine-protein kinase ABL1 (Homo sapiens), P00519 [M351T]; assay: as §1
[17] = system: Tyrosine-protein kinase ABL1 (Homo sapiens), P00519 [Q252H]; assay: as §1
[18] = system: Tyrosine-protein kinase ABL1 (Homo sapiens), P00519 [T315I]; assay: as §1
[19] = system: Tyrosine-protein kinase ABL1 (Homo sapiens), P00519 [Y253F]; assay: as §1
[20] = target: Tyrosine-protein kinase ABL1 (Homo sapiens, UniProt P00519); assay: as §1
[21] = target: Casein kinase I isoform gamma-3 (Homo sapiens) (UniProt Q9Y6M4); assay: Selectivity interaction (KinomeScan (DiscoverX)) EUB0000045b CSNK1G3
Casein kinase I isoform gamma-3 (Homo sapiens), sequence (Q9Y6M4 whole entry, looked up, canonical isoform): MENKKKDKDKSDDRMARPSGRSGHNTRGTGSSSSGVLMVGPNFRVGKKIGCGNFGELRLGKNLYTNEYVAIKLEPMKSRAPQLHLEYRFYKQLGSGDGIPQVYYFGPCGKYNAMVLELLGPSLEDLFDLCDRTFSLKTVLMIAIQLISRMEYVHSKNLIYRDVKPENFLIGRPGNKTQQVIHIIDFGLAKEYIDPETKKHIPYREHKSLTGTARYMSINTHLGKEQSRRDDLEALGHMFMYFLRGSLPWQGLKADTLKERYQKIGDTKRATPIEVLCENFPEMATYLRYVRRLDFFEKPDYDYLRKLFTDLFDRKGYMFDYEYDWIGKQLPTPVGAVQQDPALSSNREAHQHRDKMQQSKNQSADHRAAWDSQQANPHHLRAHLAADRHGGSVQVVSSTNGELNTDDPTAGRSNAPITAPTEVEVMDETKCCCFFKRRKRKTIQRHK

Ephrin type-A receptor 5 (Homo sapiens), sequence (P54756 whole entry): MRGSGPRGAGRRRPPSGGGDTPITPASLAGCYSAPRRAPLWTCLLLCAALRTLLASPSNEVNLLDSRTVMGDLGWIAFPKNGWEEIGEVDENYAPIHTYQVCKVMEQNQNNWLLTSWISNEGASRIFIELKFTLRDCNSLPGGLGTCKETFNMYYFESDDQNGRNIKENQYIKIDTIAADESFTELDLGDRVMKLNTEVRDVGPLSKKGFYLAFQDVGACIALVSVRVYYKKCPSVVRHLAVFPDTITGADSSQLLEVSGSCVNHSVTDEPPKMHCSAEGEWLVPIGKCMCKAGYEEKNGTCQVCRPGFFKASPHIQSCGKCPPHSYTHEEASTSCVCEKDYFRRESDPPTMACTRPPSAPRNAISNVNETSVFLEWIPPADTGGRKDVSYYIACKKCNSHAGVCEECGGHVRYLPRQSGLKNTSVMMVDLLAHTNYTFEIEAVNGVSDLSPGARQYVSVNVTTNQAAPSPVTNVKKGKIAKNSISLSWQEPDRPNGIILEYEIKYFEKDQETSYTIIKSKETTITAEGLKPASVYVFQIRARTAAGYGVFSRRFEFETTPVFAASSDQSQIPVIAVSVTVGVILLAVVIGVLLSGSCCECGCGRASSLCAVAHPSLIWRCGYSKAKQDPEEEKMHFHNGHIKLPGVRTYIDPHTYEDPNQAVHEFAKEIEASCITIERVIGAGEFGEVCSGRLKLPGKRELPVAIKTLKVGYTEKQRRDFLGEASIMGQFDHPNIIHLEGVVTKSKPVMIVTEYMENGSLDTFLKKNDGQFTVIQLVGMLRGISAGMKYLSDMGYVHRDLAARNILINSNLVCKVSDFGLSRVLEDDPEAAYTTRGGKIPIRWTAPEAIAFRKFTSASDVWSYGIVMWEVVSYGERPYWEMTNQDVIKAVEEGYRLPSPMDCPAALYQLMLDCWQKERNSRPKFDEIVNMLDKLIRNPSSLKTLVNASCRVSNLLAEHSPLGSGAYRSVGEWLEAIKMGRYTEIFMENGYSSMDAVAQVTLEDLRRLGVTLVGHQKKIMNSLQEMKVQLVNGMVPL

Structure (SMILES): COc1cc(Nc2nc(C)cc(-c3cnn4nc(OC)ccc34)n2)cc(C(F)(F)F)c1
- % of control [1]: 96%

Structure (SMILES): CN(C)C/C=C/C(=O)Nc1ccc(C(=O)N2CCCC(Nc3ncc(Cl)c(-c4c[nH]c5ccccc45)n3)C2)cc1 (configuration not stated)
- % of control [2]: 100%
- % of control [3]: 98%

Structure (SMILES): CC[C@@H]1[C@H](F)C(=O)N[C@@H]1COc1nccc2cc(C(N)=O)c(OC)cc12 [ZIMLOVISERTIB]
- % of inhibition ([4]; at 0.01 µM): 0.3%
- % of inhibition ([4]; at 0.04 µM): 0.4%
- % of inhibition ([4]; at 0.2 µM): 5%
- % of inhibition ([4]; at 1 µM): 5.6%
- % of inhibition ([4]; at 5 µM): -4.9%

Structure (SMILES): CN1Cc2nccc(-c3cn(C)nc3-c3ccc(F)cc3)c2C1=O
- % of inhibition [5]: -3%

Structure (SMILES): Cc1cc(F)c(C(=O)Nc2cccc(-c3nncn3C(C)C)n2)cc1-n1cnc(C2CC2)c1
- % of control [6]: 100%

Structure (SMILES): CCN(CC)CCCCNc1ncc2cc(-c3cc(OC)cc(OC)c3)c(NC(=O)NC(C)(C)C)nc2n1
- % of control [7]: 100%

Structure (SMILES): COc1cc(N(C)c2ccnc3ccc(C(F)(F)F)cc23)cc(OC)c1OC
- % binding [8]: 100%
- % binding [9]: 100%

Structure (SMILES): C=CC(=O)Nc1cccc(C(=O)Nc2ccc(Nc3cc(-c4[nH]c(SC)nc4C)ccn3)cc2)c1
- % of control ([10]; at 1 µM): 90%
- % of control ([10]; at 5 µM): 84%
- % of control ([11]; at 1 µM): 88%
- % of control ([11]; at 5 µM): 90%

Structure (SMILES): C=CC(=O)Nc1cc(-n2c(=O)ccc3cnc4ccc(-c5ccc(NS(C)(=O)=O)cc5)cc4c32)ccc1C
- % of control ([12]; at 1 µM): 63%
- % of control ([12]; at 10 µM): 77%
- % of control ([13]; at 1 µM): 100%
- % of control ([13]; at 10 µM): 100%
- % of control ([14]; at 1 µM): 100%
- % of control ([14]; at 10 µM): 100%
- % of control ([15]; at 1 µM): 100%
- % of control ([15]; at 10 µM): 100%
- % of control ([16]; at 1 µM): 90%
- % of control ([16]; at 10 µM): 86%
- % of control ([17]; at 1 µM): 100%
- % of control ([17]; at 10 µM): 100%
- % of control ([18]; at 1 µM): 100%
- % of control ([18]; at 10 µM): 100%
- % of control ([19]; at 1 µM): 100%
- % of control ([19]; at 10 µM): 76%
- % of control ([20]; at 1 µM): 100%
- % of control ([20]; at 10 µM): 73%
- % of control ([21]; at 1 µM): 100%
- % of control ([21]; at 10 µM): 84%
